Results reported in EP4796557A1, “POLYPEPTIDE, BIOACTIVE CONJUGATE, AND PREPARATION METHOD THEREFOR AND USE THEREOF” (priority 2023, dated 2025).
Square brackets hold non-standard residues; d marks the D form. Peptide text beside a SMILES is read from it. Cit = NC(=O)NCCC[C@H](N)C(=O)O

Legend:
MMP9 = MMP9 (Homo sapiens, UniProt P14780); experiment: Enzymolysis assay of polypeptides by MMP9 (RP-HPLC); type: biochemical; conditions: polypeptide 100 µmol with activated MMP9, 37°C, 4 h, RP-HPLC peak areas
Description: (§1) First, MMP2 or MMP9 enzyme solution having a final concentration of 200 µg/mL was mixed with 4 mM APMA at a ratio of 1:1, placed in a 37°C water bath and incubated for 24 h to activate the MMP2 or MMP9 enzyme solution. Subsequently, the test polypeptide having a final concentration of 100 µmol was incubated with the activated MMP2 or MMP9 enzyme solution in a 37°C water bath for 4 h. After the reaction was complete, an equal volume of acetonitrile solution was added thereto, followed by RP-HPLC analysis.
(§2) The enzymolysis efficiency of the polypeptide was calculated based on the peak areas of the target peak before and after enzymolysis. The formula is as follows: Enzymolysis efficiency = […] [formula]

MMP2 = target: T1, MMP2 (Homo sapiens, UniProt P08253); experiment: Enzymolysis assay of polypeptides by MMP2 (RP-HPLC); type: biochemical; conditions: test polypeptide 100 µmol, activated MMP2, 37°C, 4 h
T1 sequence (P08253 110-660): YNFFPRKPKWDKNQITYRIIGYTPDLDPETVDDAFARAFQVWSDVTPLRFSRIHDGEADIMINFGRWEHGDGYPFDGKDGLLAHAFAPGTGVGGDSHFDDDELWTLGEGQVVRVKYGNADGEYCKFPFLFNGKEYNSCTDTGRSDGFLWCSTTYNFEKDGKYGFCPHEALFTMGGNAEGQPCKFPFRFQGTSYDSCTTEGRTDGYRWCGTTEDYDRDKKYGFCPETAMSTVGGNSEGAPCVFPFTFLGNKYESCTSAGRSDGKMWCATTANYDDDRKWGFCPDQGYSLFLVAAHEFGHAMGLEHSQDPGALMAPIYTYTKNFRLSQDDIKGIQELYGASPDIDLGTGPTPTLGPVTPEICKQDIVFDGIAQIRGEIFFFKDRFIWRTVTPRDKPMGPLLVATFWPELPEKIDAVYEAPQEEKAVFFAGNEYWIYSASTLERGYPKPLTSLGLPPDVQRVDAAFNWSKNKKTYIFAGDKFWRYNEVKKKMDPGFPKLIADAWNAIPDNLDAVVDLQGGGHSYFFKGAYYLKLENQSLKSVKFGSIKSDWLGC
Description: as §1, §2

Sequence of MMP9 (P14780 107-707 limits assumed, species assumed): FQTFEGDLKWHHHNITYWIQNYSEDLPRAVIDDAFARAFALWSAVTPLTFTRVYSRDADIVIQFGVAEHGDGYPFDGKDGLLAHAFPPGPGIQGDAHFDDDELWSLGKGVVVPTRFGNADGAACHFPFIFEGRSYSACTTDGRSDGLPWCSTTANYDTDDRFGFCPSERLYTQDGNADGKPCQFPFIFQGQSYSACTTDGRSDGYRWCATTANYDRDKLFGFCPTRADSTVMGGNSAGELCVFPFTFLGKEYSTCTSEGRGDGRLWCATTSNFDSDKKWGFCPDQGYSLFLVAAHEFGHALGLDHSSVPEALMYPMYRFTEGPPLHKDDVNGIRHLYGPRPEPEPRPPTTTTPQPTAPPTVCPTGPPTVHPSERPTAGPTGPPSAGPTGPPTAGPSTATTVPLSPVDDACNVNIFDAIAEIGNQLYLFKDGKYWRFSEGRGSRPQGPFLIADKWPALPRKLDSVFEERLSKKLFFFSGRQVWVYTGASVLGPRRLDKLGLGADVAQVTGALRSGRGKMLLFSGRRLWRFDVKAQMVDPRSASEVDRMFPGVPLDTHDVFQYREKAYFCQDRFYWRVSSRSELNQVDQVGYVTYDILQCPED

Row | Enzymolysis efficiency (%) (MMP9) | Enzymolysis efficiency (%) (MMP2) | Compound
1 | 79.34 | 53.20 | CC(=O)N1CCC[C@H]1C(=O)N[C@@H](CCCNC(=N)N)C(=O)N[C@@H](CO)C(=O)N[C@@H](CC(C)C)C(=O)N[C@H](C(=O)N[C@@H](CCCNC(N)=O)C(N)=O)C(C)C [Compound 2-P2] (Ac-PRSLV[Cit]-NH2)
2 | 77.95 | 62.64 | CC(=O)NCC(=O)N1CCC[C@H]1C(=O)N[C@@H](CCCNC(=N)N)C(=O)N[C@@H](CO)C(=O)N[C@@H](CC(C)C)C(=O)N[C@H](C(=O)N[C@@H](CCCNC(N)=O)C(N)=O)C(C)C [Compound 2-P7] (Ac-GPRSLV[Cit]-NH2)
3 | 62.58 | 55.07 | CC(=O)NCC(=O)N1CCC[C@H]1C(=O)N[C@@H](CCCNC(=N)N)C(=O)N1CCC[C@H]1C(=O)N[C@@H](CC(C)C)C(=O)N[C@H](C(=O)N[C@@H](CCCNC(N)=O)C(N)=O)C(C)C [Compound 2-P8] (Ac-GPRPLV[Cit]-NH2)
4 | 32.62 | 51.36 | Ac-GPQGLGGFG-NH2 [Compound 1-P20]
5 | 33.25 | 40.90 | Ac-VPLSLGGFG-NH2 [Compound 1-P15]
6 | 37.81 | 82.72 | Ac-GPSGLGGFG-NH2 [Compound 1-P22]
7 | 64.81 | 53.54 | CC(=O)N[C@@H](Cc1c[nH]cn1)C(=O)N1CCC[C@H]1C(=O)N[C@@H](CCCNC(N)=O)C(=O)NCC(=O)N[C@@H](CC(C)C)C(=O)N[C@H](C(=O)N[C@@H](CCCNC(N)=O)C(N)=O)C(C)C [Compound 2-P16] (Ac-HP[Cit]GLV[Cit]-NH2)
8 | 93.67 | 80.31 | CC(=O)N1CCC[C@H]1C(=O)N[C@@H](CCCNC(=N)N)C(=O)NCC(=O)N[C@@H](CC(C)C)C(=O)N[C@H](C(=O)N[C@@H](CCCNC(N)=O)C(N)=O)C(C)C [Compound 2-P1, PRGLVCit] (Ac-PRGLV[Cit]-NH2)
9 | 38.72 | 45.97 | CC(=O)N[C@@H](CO)C(=O)N1CCC[C@H]1C(=O)N[C@@H](CCCNC(N)=O)C(=O)N1CCC[C@H]1C(=O)N[C@@H](CC(C)C)C(=O)N[C@H](C(=O)N[C@@H](CCCNC(N)=O)C(N)=O)C(C)C [Compound 2-P24] (Ac-SP[Cit]PLV[Cit]-NH2)
10 | 27.26 | 37.27 | Ac-GPLSLGGFG-NH2 [Compound 1-P17]
11 | 45.82 | 40.95 | CC(=O)NCC(=O)N1CCC[C@H]1C(=O)N[C@@H](CCCNC(N)=O)C(=O)N1CCC[C@H]1C(=O)N[C@@H](CC(C)C)C(=O)N[C@H](C(=O)N[C@@H](CCCNC(N)=O)C(N)=O)C(C)C [Compound 2-P11] (Ac-GP[Cit]PLV[Cit]-NH2)
12 | 97.39 | 66.36 | CC(=O)N1CCC[C@H]1C(=O)N[C@@H](CCCNC(=N)N)C(=O)N[C@@H](CC(N)=O)C(=O)N[C@@H](CC(C)C)C(=O)N[C@H](C(=O)N[C@@H](CCCNC(N)=O)C(N)=O)C(C)C [Compound 2-P3] (Ac-PRNLV[Cit]-NH2)
13 | 4.86 | 11.78 | Ac-HVLNLGGFG-NH2 [Compound 1-P14]
14 | 37.13 | 96.89 | Ac-GPAALGGFG-NH2 [Compound 1-P24]
15 | 58.33 | 54.65 | CC(=O)N[C@@H](Cc1c[nH]cn1)C(=O)N1CCC[C@H]1C(=O)N[C@@H](CCCNC(=N)N)C(=O)N1CCC[C@H]1C(=O)N[C@@H](CC(C)C)C(=O)N[C@H](C(=O)N[C@@H](CCCNC(N)=O)C(N)=O)C(C)C [Compound 2-P14] (Ac-HPRPLV[Cit]-NH2)
16 | 75.60 | 90.43 | Ac-GPLGLGGFG-NH2 [Compound 1-P21]
17 | 94.69 | 63.27 | CC(=O)N[C@@H](Cc1c[nH]cn1)C(=O)N1CCC[C@H]1C(=O)N[C@@H](CCCNC(=N)N)C(=O)N[C@@H](CC(N)=O)C(=O)N[C@@H](CC(C)C)C(=O)N[C@H](C(=O)N[C@@H](CCCNC(N)=O)C(N)=O)C(C)C [Compound 2-P15] (Ac-HPRNLV[Cit]-NH2)
18 | 48.98 | 42.87 | CC(=O)N[C@@H](Cc1c[nH]cn1)C(=O)N1CCC[C@H]1C(=O)N[C@@H](CCCNC(N)=O)C(=O)N1CCC[C@H]1C(=O)N[C@@H](CC(C)C)C(=O)N[C@H](C(=O)N[C@@H](CCCNC(N)=O)C(N)=O)C(C)C [Compound 2-P17] (Ac-HP[Cit]PLV[Cit]-NH2)

The remaining lines, values behind:

Row | Compound | Enzymolysis efficiency (%) (MMP9) | Enzymolysis efficiency (%) (MMP2)
19 | CC(=O)NCC(=O)N1CCC[C@H]1C(=O)N[C@@H](CCC(N)=O)C(=O)NCC(=O)N[C@@H](CC(C)C)C(=O)N[C@H](C(=O)N[C@@H](CCCNC(N)=O)C(N)=O)C(C)C [Compound 1-P8] (Ac-GPQGLV[Cit]-NH2) | 29.30 | 54.71
20 | CC[C@H](C)[C@H](NC(C)=O)C(=O)N1CCC[C@H]1C(=O)N[C@H](C(=O)N[C@@H](CO)C(=O)N[C@@H](CC(C)C)C(=O)N[C@H](C(=O)N[C@@H](CCCNC(N)=O)C(N)=O)C(C)C)C(C)C [Compound 1-P4] (Ac-IPVSLV[Cit]-NH2) | 18.84 | 21.87
21 | CC(=O)N[C@@H](CO)C(=O)N1CCC[C@H]1C(=O)N[C@@H](CCCNC(=N)N)C(=O)N[C@@H](CO)C(=O)N[C@@H](CC(C)C)C(=O)N[C@H](C(=O)N[C@@H](CCCNC(N)=O)C(N)=O)C(C)C [Compound 2-P19] (Ac-SPRSLV[Cit]-NH2) | 79.26 | 55.76
22 | CC(=O)N1CCC[C@H]1C(=O)N[C@@H](CCCNC(=N)N)C(=O)N1CCC[C@H]1C(=O)N[C@@H](CC(C)C)C(=O)N[C@H](C(=O)N[C@@H](CCCNC(N)=O)C(N)=O)C(C)C [Compound 2-P4] (Ac-PRPLV[Cit]-NH2) | 61.01 | 46.14
23 | Ac-GPSALGGFG-NH2 [Compound 1-P25] | 38.53 | 83.12
24 | CC(=O)NCC(=O)N1CCC[C@H]1C(=O)N[C@@H](C)C(=O)NCC(=O)N[C@@H](CC(C)C)C(=O)N[C@H](C(=O)N[C@@H](CCCNC(N)=O)C(N)=O)C(C)C [Compound 1-P7] (Ac-GPAGLV[Cit]-NH2) | 25.55 | 90.29
25 | CC(=O)N[C@@H](CO)C(=O)N1CCC[C@H]1C(=O)N[C@@H](CCCNC(=N)N)C(=O)N1CCC[C@H]1C(=O)N[C@@H](CC(C)C)C(=O)N[C@H](C(=O)N[C@@H](CCCNC(N)=O)C(N)=O)C(C)C [Compound 2-P20] (Ac-SPRPLV[Cit]-NH2) | 57.87 | 52.52
26 | CC(=O)N[C@@H](Cc1c[nH]cn1)C(=O)N[C@H](C(=O)N[C@@H](CC(C)C)C(=O)N[C@@H](CC(N)=O)C(=O)N[C@@H](CC(C)C)C(=O)N[C@H](C(=O)N[C@@H](CCCNC(N)=O)C(N)=O)C(C)C)C(C)C [Compound 1-P2] (Ac-HVLNLV[Cit]-NH2) | – | 14.28
27 | CC(=O)NCC(=O)N1CCC[C@H]1C(=O)N[C@@H](CC(C)C)C(=O)NCC(=O)N[C@@H](CC(C)C)C(=O)N[C@H](C(=O)N[C@@H](CCCNC(N)=O)C(N)=O)C(C)C [Compound 1-P9] (Ac-GPLGLV[Cit]-NH2) | 68.34 | 81.75
28 | CC(=O)NCC(=O)N1CCC[C@H]1C(=O)N[C@@H](CC(C)C)C(=O)N[C@@H](CO)C(=O)N[C@@H](CC(C)C)C(=O)N[C@H](C(=O)N[C@@H](CCCNC(N)=O)C(N)=O)C(C)C [Compound 1-P5] (Ac-GPLSLV[Cit]-NH2) | 54.80 | 52.03
29 | CC(=O)N[C@H](C(=O)N1CCC[C@H]1C(=O)N[C@@H](CC(C)C)C(=O)N[C@@H](CO)C(=O)N[C@@H](CC(C)C)C(=O)N[C@H](C(=O)N[C@@H](CCCNC(N)=O)C(N)=O)C(C)C)C(C)C [Compound 1-P3] (Ac-VPLSLV[Cit]-NH2) | 51.44 | 49.85
30 | CC(=O)NCC(=O)N1CCC[C@H]1C(=O)N[C@@H](C)C(=O)N[C@@H](C)C(=O)N[C@@H](CC(C)C)C(=O)N[C@H](C(=O)N[C@@H](CCCNC(N)=O)C(N)=O)C(C)C [Compound 1-P12] (Ac-GPAALV[Cit]-NH2) | 20.93 | 38.94
31 | CC(=O)NCC(=O)N1CCC[C@H]1C(=O)N[C@@H](C)C(=O)N[C@@H](CO)C(=O)N[C@@H](CC(C)C)C(=O)N[C@H](C(=O)N[C@@H](CCCNC(N)=O)C(N)=O)C(C)C [Compound 1-P6] (Ac-GPASLV[Cit]-NH2) | 28.79 | 86.72
